Paper PMC9867837 (Cancer letters, 2022)
Read-outs that look alike come from different tables or passages of the source.

Tests used:
Format in all cases: biochemical
[1] = target: T1, Stat3:Stat3 DNA-binding activity (Mus musculus, UniProt P42227); experiment: EMSA of Stat3:Stat3 DNA-binding activity in nuclear extracts; conditions: for Stat3:Stat3 % of Con, pre-formed Stat3:DNA complex: extract pre-incubated with hSIE probe 30 min
T1 construct: endogenous in cells; host or cells: NIH3T3/v-Src fibroblasts; EGF-stimulated NIH3T3/hEGFR fibroblasts (nuclear extracts)
Method: (§1) Details are presented in Supplementary Information, “Methods”. […]
(§2) min, prior to incubation with the radiolabeled probe for 30 min at 30 °C and subjecting to EMSA analysis.
(§3) In another case, the nuclear extract was pre-incubated with the radiolabeled probe for 30 min at 30 °C prior to incubation with increasing concentration of H182 at room temperature for 30 min and subjecting to EMSA analysis. Bands corresponding to Stats DNA- binding activities were scanned and quantified using ImageJ and plotted as a percentage of control (vehicle) against the concentration of the inhibitor, from which the IC50 values were derived .

[2] = target: T2, Stat1:Stat3 DNA-binding activity (Mus musculus, UniProt P42227); experiment: EMSA of Stat1:Stat3 DNA-binding activity in nuclear extracts of EGF-stimulated NIH3T3/hEGFR; conditions: Fig. 1C, hSIE probe, 30 min
T2 construct: endogenous in cells; host or cells: EGF-stimulated NIH3T3/hEGFR fibroblasts (nuclear extract)
Method: as §1, §2, §3

pYStat3C542S = target: T3, pYStat3C542S (Homo sapiens, UniProt P40763, C542S); experiment: EMSA with purified mutant pYStat3C542S; conditions: 3 μM H182, 30 min
T3 construct: made in house; host or cells: E. coli BL21(DE3) TKB1 (inducible tyrosine kinase)
Text: (§4) This construct was used to generate the mutants, Stat3C328A, Stat3C426A, Stat3C468A, and Stat3C542S, as described in detail in Supplementary Information “Methods”.
(§5) The expression of un-phosphorylated and tyrosine phosphorylated His-tagged recombinant wtStat3 and mutant Stat3 proteins in BL21 (DE3) bacterial cells is described in detail in Supplementary Information “Methods”.
Given the MS data, we conducted site-directed mutagenesis analysis for the effects of Cys mutations (Cys-to-Ala or Cys-to-Ser mutations) on the inhibitory activities or potencies of the compounds. […]
as §3, with “derived . […]” for “derived .”
(§6) These studies were performed as previously reported using the v-Src -transformed NIH3T3/v-Src fibroblasts [1 -5] . […] Luciferase activity was normalized to total protein concentration of cell lysate, which was determined by Bradford assay (Bio-Rad, Hercules, CA) . […]

pYStat3C468A = target: T4, pYStat3C468A (Homo sapiens, UniProt P40763, C468A); experiment: EMSA with purified mutant pYStat3C468A
T4 construct: made in house; host or cells: E. coli BL21(DE3) TKB1 (inducible tyrosine kinase)
Text: as §4, §5
Given the MS data, we conducted site-directed mutagenesis analysis for the effects of Cys mutations (Cys-to-Ala or Cys-to-Ser mutations) on the inhibitory activities or potencies of the compounds. […] Purified, phosphorylated wild-type (wt)Stat3, and phosphorylated mutants, Stat3C328A, Stat3C426A, Stat3C468A, and Stat3C542S protein samples of equal amounts were pre-incubated with or without 3 μM H182 for 30 min at room temperature prior to incubation with the radiolabeled hSIE probe that binds Stat3 and subjecting to EMSA analysis. […] Focusing on the C426 and C468, we next conducted dose-response studies for effects of H182 on Stat3C426A and Stat3C468A. […] Equal proteins used in the DNA-binding assay/EMSA analysis are shown by SDS-PAGE Coomassie staining (Fig. 3B, lower). […]
as §3, with “derived . […]” for “derived .”
as §6

[3] = 2 μM H182, incubation time 3 min
[4] = 2 μM H182, incubation time 10 min
[5] = 2 μM H182, incubation time 30 min
[6] = 2 μM H182, incubation time 60 min

T1 sequence (P42227 2-770 limits assumed): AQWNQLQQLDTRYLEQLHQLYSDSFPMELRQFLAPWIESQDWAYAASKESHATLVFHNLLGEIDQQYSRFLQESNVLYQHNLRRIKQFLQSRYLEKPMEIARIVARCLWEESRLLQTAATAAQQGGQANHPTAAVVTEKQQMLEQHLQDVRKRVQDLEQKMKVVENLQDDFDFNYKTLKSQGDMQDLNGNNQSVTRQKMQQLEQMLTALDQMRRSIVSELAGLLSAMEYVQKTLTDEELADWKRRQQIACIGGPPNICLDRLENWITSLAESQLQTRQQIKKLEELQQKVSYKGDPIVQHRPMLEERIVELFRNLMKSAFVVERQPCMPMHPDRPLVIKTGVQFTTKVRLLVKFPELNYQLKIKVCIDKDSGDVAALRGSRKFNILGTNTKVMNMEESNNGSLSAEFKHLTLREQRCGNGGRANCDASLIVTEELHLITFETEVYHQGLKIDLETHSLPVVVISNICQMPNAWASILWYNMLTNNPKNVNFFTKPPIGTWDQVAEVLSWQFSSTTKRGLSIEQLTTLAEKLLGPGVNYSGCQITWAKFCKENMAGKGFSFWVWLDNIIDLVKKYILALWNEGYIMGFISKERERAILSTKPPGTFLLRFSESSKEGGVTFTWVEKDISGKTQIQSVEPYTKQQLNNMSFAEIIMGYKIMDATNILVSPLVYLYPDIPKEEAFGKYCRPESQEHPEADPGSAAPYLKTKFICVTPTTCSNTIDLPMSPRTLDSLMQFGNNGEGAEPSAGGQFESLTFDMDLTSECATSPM
T4 sequence (P40763 127-711 C468A): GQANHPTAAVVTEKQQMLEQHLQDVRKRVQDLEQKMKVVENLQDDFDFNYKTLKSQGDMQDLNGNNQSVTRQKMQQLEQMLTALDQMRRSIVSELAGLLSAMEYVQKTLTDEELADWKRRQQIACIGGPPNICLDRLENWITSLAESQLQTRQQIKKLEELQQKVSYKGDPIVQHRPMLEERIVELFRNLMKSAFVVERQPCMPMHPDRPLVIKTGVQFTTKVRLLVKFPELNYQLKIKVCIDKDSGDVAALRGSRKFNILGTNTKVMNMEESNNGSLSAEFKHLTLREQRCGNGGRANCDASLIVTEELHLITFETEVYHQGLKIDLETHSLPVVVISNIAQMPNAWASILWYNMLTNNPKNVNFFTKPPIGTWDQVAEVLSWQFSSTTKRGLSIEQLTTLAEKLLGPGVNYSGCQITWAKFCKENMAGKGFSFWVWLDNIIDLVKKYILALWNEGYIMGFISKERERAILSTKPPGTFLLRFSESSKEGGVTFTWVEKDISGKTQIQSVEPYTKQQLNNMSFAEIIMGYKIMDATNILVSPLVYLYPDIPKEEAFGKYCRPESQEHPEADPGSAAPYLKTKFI
T2 sequence (P42227 2-770 limits assumed): as the sequence (P42227 2-770 limits assumed) above
T2 sequence (P42225 2-749 partner limits assumed): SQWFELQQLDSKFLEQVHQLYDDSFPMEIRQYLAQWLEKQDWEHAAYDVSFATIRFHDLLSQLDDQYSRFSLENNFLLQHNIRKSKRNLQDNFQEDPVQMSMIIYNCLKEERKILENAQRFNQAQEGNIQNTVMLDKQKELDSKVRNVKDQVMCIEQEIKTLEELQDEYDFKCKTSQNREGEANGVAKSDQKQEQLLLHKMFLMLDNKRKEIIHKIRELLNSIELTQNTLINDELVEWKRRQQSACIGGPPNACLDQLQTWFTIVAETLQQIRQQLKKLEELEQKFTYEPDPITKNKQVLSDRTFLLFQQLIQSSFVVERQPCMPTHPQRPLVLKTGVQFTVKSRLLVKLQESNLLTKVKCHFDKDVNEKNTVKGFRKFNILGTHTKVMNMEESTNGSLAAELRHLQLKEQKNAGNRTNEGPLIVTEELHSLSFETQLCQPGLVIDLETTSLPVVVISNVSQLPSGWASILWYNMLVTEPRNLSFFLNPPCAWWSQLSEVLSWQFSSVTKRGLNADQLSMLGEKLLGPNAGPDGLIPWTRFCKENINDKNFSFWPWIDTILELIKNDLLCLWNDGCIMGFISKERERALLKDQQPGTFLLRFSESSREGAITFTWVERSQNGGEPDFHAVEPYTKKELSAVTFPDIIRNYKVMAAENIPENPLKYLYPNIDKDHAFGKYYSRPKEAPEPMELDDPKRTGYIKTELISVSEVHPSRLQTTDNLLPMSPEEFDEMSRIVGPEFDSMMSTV
T3 sequence (P40763 127-711 C542S): as the sequence (P40763 127-711 C468A) above, with A342C, C416S counted along it

## O=C([C@H]1CCN1S(=O)(=O)c1c(F)c(F)c(F)c(F)c1F)N(Cc1ccc(C2CCCCC2)cn1)c1ccc2c(=O)[nH]ncc2c1 [Compound H182]
[1]; 2 μM H182, incubation time 0 min
  Stat3:Stat3 Intensity (% of Con): 100 % of Con
[1]; [3]
  Stat3:Stat3 Intensity (% of Con): 84 % of Con
  inhibition at 2 µM: 16%
[1]; [4]
  Stat3:Stat3 Intensity (% of Con): 65 % of Con
  inhibition at 2 µM: 35%
[1]; [5]
  Stat3:Stat3 Intensity (% of Con): 14 % of Con
  inhibition at 2 µM: 86%
[1]; [6]
  Stat3:Stat3 Intensity (% of Con): 0.1 % of Con
  inhibition at 2 µM: 99.9%
[1]; EMSA, NIH3T3/v-Src nuclear extracts, 30-min incubation at room temperature before hSIE probe, read-out: Stat3:Stat3 IC50
  IC50: 660 ± 100 nM
[1]; EMSA, incubation time 10 min before hSIE probe, read-out: Stat3:Stat3 IC50
  IC50: 1470 nM
[1]; EMSA, incubation time 60 min before hSIE probe, read-out: Stat3:Stat3 IC50
  IC50: 380 nM
[1]; Fig. 1C, extracts of EGF-stimulated NIH3T3/hEGFR, hSIE probe, 30 min, read-out: IC50 Stat3:Stat3
  IC50: 700 nM
[1]; then 1 μM H182 30 min
  Stat3:Stat3 % of Con, pre-formed Stat3:DNA complex: 101 % of Con
[1]; then 3 μM H182 30 min
  Stat3:Stat3 % of Con, pre-formed Stat3:DNA complex: 101 % of Con
[1]; then 10 μM H182 30 min
  Stat3:Stat3 % of Con, pre-formed Stat3:DNA complex: 100 % of Con
[1]; then 30 μM H182 30 min
  Stat3:Stat3 % of Con, pre-formed Stat3:DNA complex: 98 % of Con
[1]; then 100 μM H182 30 min
  Stat3:Stat3 % of Con, pre-formed Stat3:DNA complex: 86 % of Con
[1]; range over the named compounds and incubation times, read-out: IC50 Stat3 DNA-binding activity in vitro (summary range)
  IC50: 380 to 980 nM
[1]; up to 100 μM H182
  Inhibition of the pre-formed Stat3:DNA complex: unable to inhibit the pre-formed Stat3:DNA complex
[2]
  IC50: 3400 nM
pYStat3C542S
  Effect on DNA-binding activity of pYStat3C542S: strong inhibition
pYStat3C468A; 3 μM H182, 30 min
  Effect on DNA-binding activity of pYStat3C468A: unaffected
pYStat3C468A; 10 μM H182
  Effect on pYStat3C468A activity: no effect
pYStat3C468A; EMSA, 0–50 μM H182, 30 min
  IC50: 40000 nM
